What was measured:
[1] = system: DRV-resistant HIV-1 variants; test: HIV-1 infectivity assay, DRV-resistant; format: cell-based; conditions: Human immunodeficiency virus 1, read-out: inhibition against DRV-resistant HIV-1 variants
Method: (§1) . Inhibitors dissolved in dimethylsulfoxide (DMSO) and diluted to appropriate concentrations, were added into culture medium at 5 hours of post-transfection. After incubating for 48 hours at temperature 37 °C, pseudotyped viruses in 10 μL of supernatant were used to infect SupT1 cells for 48 hours, followed by measuring luciferase activity of newly infected cells using Centro LB960 (Berthold).
(§2) Fig 6 Inhibition of inhibitors against wild-type and DRV-resistant HIV-1 variants.

[2] = Cytotoxicity assay (cell counting kit-8); format: cell-based; conditions: human; 293T cells, CCK-8, 24h exposure
Method: Selected inhibitors were further evaluated in cytotoxicity assay using a cell counting kit-8 assay. […] After 24h of culture, 1μL of drugs were added to each well. After another 24h of culture, 10 μL of CCK-8 was added to each well. Absorbance was quantified at wavelength 450 nm using an EnVision multilabel reader (PerkinElmer) after 2h at room temperature.

[3] = target: T1, wild-type HIV-1 PR (Human immunodeficiency virus type 1 group M subtype B, UniProt P04585); test: In vitro HIV-1 PR activity assay (FRET); format: biochemical
T1 construct: HIV-1 protease was cloned and heterologously expressed in Escherichia coli and purified; made in house; host or cells: Escherichia coli
Method: (§3) The inhibitory effect of all new designed inhibitors were measured using fluorescence resonance energy transfer (FRET) method. […] The energy transfer donor (EDANS) and acceptor (DABCYL) dyes are labeled at two ends of the peptide to perform FRET. Excitation and emission wavelengths were set at 340 nm and 490 nm. Inhibitors were dissolved in dimethylsulfoxide (DMSO) and diluted to appropriate concentrations. HIV-1 protease was cloned and heterologously expressed in Escherichia coli and purified. The experiment was carried out in 96-well plates. The FRET assay reaction buffer contained 0.1 M sodium acetate, 1 M sodium chloride, 1 mM ethylenediaminetetraacetic acid (EDTA), 1 mM dithiothreitol (DTT), 2% DMSO and 1 mg/mL bovine serum albumin (BSA) with an adjusted pH 4.7. Protease and inhibitor were mixed and incubated for 20–30 mins at room temperature and then the substrate was added. Each reaction was recorded for about 10 mins. From plots of concentration versus the calculated percent inhibition, IC50 values were determined.
as §3, with “20-30” for “20–30”, “mins.” for “mins. From plots of concentration versus the calculated percent inhibition, IC50 values were determined.”

[4] = system: wild-type HIV-1 variants; test: HIV-1 infectivity assay, wild-type; format: cell-based; conditions: Human immunodeficiency virus 1, read-out: inhibition against wild-type HIV-1 variants
Method: as §1
For the assay using wild type HIV-1, 1×10^6 SupT1 cells were infected with 100 μL HIV-1 NL4-3 in the presence of 100 nM chemicals and 10 μg/mL polybrene, keeping a total volume of 500 μL (Spin infection at 1800rpm, 45min). Cells were washed once in the next morning and medium were replaced with fresh medium containing 100 nM chemicals. At 48 hpi, viruses were harvested and 50 μL of viruses were used to infect TZM-bl cells, followed by measuring luciferase activity in the infected cells.
as §2

[5] = system: HIV-1 protease; design: method as in PMID 32057582; conditions: previously reported PIs; cited from earlier work

With `COc1ccc(S(=O)(=O)N(C[C@@H](O)[C@H](Cc2ccccc2)NC(=O)[C@@H]2CCCN(C)C2)C2CC2)cc1` [24a, (R)-N-((2S,3R)-4-((N-cyclopropyl-4-methoxyphenyl)sulfonamido)-3-hydroxy-1-phenylbutan-2-yl)-1-methylpiperidine-3-carboxamide] the inhibition at 10 µM [1] was 8%, the melting point was 86.4 to 88.2 °C and the CC50 at 24 h [2] was greater than 100000 nM. For the same molecule, the IC50 [3] was 8.07 ± 3.59 nM and the inhibition at 10 µM [4] was 16%.

With `COc1ccc(S(=O)(=O)N(C[C@@H](O)[C@H](Cc2ccccc2)NC(=O)[C@@H]2CCCNC2)C2CC2)cc1` [22a, (R)-N-((2S,3R)-4-((N-cyclopropyl-4-methoxyphenyl)sulfonamido)-3-hydroxy-1-phenylbutan-2-yl)piperidine-3-carboxamide] the inhibition at 10 µM [1] was 26%, the melting point was 162.8 to 164.3 °C and the CC50 at 24 h [2] was greater than 100000 nM. For the same molecule, the IC50 [3] was 3.61 nM, the “improvement of potency over 23a” value ([3]; ratio of IC50 values, (R)- vs (S)-configuration) was 120 fold and the inhibition at 10 µM [4] was 42%.

For `CN1CCC[C@@H](C(=O)N[C@@H](Cc2ccccc2)[C@H](O)CN(C2CC2)S(=O)(=O)c2ccc(C(F)(F)F)cc2)C1` [24b, (R)-N-((2S,3R)-4-((N-cyclopropyl-4-(trifluoromethyl)phenyl)sulfonamido)-3-hydroxy-1-phenylbutan-2-yl)-1-methylpiperidine-3-carboxamide], the inhibition at 10 µM [1] was 7%, the melting point was 82.9 to 84.7 °C and the CC50 at 24 h [2] was greater than 100000 nM. It also gave an IC50 [3] of 9.28 ± 5.66 nM and an inhibition at 10 µM [4] of 12%.

In the case of `O=C(N[C@@H](Cc1ccccc1)[C@H](O)CN(C1CC1)S(=O)(=O)c1ccc(C(F)(F)F)cc1)N1CCOCC1` [B], the IC50 [5] is given as 47 nM.

For `COc1ccc(S(=O)(=O)N(C[C@@H](O)[C@H](Cc2ccccc2)NC(=O)OCCN2CCOCC2)C2CC2)cc1` [A], the IC50 [5] is given as 53 nM.
